These compounds were tested on immunoglobulin light chain protein WIL-FL T46L (assay: Differential scanning fluorimetry (thermal shift) assay). Conditions: not given.
Format: binding
For `CNC(=O)c1nc2c(C)cc(N3CC[C@](C)(c4cccc(F)c4)C3)cn2n1` [Compound 32], the DSF was “***** (key: 0-0.5° C.=*; >0.5-1 °C =**; >1-1.5° C.=***; >1.5-2.5° C.=****; >2.5° C.=*****)”.

Same assay, conditions: Table A; temperature shift [Tm]compound-[Tm]vehicle; recombinant WIL-FL T46L
`Cc1cc(N2CC3(CC[C@@H]3c3ccccc3)C2)cn2nc(C(=O)N3CC[C@@]4(CCN(c5cccc(C(=O)[O-])n5)C4)C3)nc12.[Li+]` [Compound 24B, lithium 6-((R)-7-(8-methyl-6-((R)-5-phenyl-2-azaspiro[3.3]heptan-2-yl)-[1,2,4]triazolo[1,5-a]pyridine-2-carbonyl)-2,7-diazaspiro[4.4]nonan-2-yl)picolinate] was tested, and the DSF was “***** (>2.5° C.=*****)”.
In the case of `Cc1ncn(C2(C)CCN(c3cc(C)c4nc(C(=O)N5C[C@@H]6CN(c7cccc(C(=O)O)n7)C[C@@H]6C5)nn4c3)C2=O)n1` (stereo partly drawn) [Compound 25, 6-((3aR,6aS)-5-(8-methyl-6-(3-methyl-3-(3-methyl-1H-1,2,4-triazol-1-yl)-2-oxopyrrolidin-1-yl)-[1,2,4]triazolo[1,5-a]pyridine-2-carbonyl)hexahydropyrrolo[3,4-c]pyrrol-2(1H)-yl)picolinic acid], the DSF is reported as “* (0-0.5° C.=*)”.
For `Cc1cc(N2CC[C@](C)(c3ccccc3)C2)cn2nc(S(=O)(=O)NC3CNC3)nc12` [Compound 27, N-(azetidin-3-yl)-8-methyl-6-[(3R)-3-methyl-3-phenyl-pyrrolidin-1-yl]-[1,2,4]triazolo[1,5-a]pyridine-2-sulfonamide], the DSF was “***** (>2.5° C.=*****)”.
With `Cc1cc(N2CC[C@](c3ccccc3)(C(F)F)C2)cn2nc(C(=O)NCC(C)(C)O)nc12` [Compound 28, 6-[(3R)-3-(difluoromethyl)-3-phenyl-pyrrolidin-1-yl]-N-(2-hydroxy-2-methyl-propyl)-8-methyl-[1,2,4]triazolo[1,5-a]pyridine-2-carboxamide] the DSF was “**** (>1.5-2.5° C.=****)”.
For `Cc1cc(N2CC[C@](C)(c3ccccc3)C2)cn2nc(C(=O)NC3CC4(CCC4N4CC5C(C4)C5C(=O)O)C3)nc12` (stereo partly drawn) [Compound 31, 3-[2-[[8-methyl-6-[(3R)-3-methyl-3-phenyl-pyrrolidin-1-yl]-[1,2,4]triazolo[1,5-a]pyridine-2-carbonyl]amino]spiro[3.3]heptan-7-yl]-3-azabicyclo[3.1.0]hexane-6-carboxylic acid], the DSF was “***** (>2.5° C.=*****)”.
`CCC1(c2ccccc2)CN(c2cc(C)c3nc(C(=O)NC)nn3c2)C1` [Compound 33, 6-(3-ethyl-3-phenyl-azetidin-1-yl)-N, 8-dimethyl-[1,2,4]triazolo[1,5-a]pyridine-2-carboxamide] was tested, and the DSF was “***** (>2.5° C.=*****)”.
`Cc1cc(N2CCC(C)(c3ccccn3)C2)cn2nc(C(=O)NC3CCN(c4cccc(C(=O)O)n4)CC3)nc12` (stereo not shown) [Compound 34, 6-[4-[[8-methyl-6-[3-methyl-3-(2-pyridyl)pyrrolidin-1-yl]-[1,2,4]triazolo[1,5-a]pyridine-2-carbonyl]amino]-1-piperidyl]pyridine-2-carboxylic acid] was tested, and the DSF was “**** (>1.5-2.5° C.=****)”.
`Cc1cc(N2CCC(C)(c3nnn(C)n3)C2)cn2nc(C(=O)N3C[C@@H]4CN(c5cccc(C(=O)O)n5)C[C@@H]4C3)nc12` (stereo partly shown) [Compound 35, 6-[5-[8-methyl-6-[3-methyl-3-(2-methyltetrazol-5-yl)pyrrolidin-1-yl]-[1,2,4]triazolo[1,5-a]pyridine-2-carbonyl]-1,3,3a, 4,6,6a-hexahydropyrrolo[3,4-c]pyrrol-2-yl]pyridine-2-carboxylic acid] was tested, and the DSF was “*** (>1-1.5° C.=***)”.
For `Cc1cc(N2CC[C@](C)(c3ccc(Cl)c(Cl)c3)C2)cn2nc(C(=O)N3CC[C@@]4(CCN(c5cccc(C(=O)O)n5)C4)C3)nc12` [Compound 37, 6-[(5R)-2-[6-[(3R)-3-(3,4-dichlorophenyl)-3-methyl-pyrrolidin-1-yl]-8-methyl-[1,2,4]triazolo[1,5-a]pyridine-2-carbonyl]-2,7-diazaspiro[4.4]nonan-7-yl]pyridine-2-carboxylic acid], the DSF was “***** (>2.5° C.=*****)”.
`COC(=O)c1cccc(N2C[C@H]3CN(C(=S)c4nc5c(C)cc(N6CCC(C)(c7nnc(C)s7)C6)cn5n4)C[C@H]3C2)n1` (stereo partly shown) [Compound 38, methyl 6-[5-[8-methyl-6-[3-methyl-3-(5-methyl-1,3,4-thiadiazol-2-yl)pyrrolidin-1-yl]-[1,2,4]triazolo[1,5-a]pyridine-2-carbothioyl]-1,3,3a, 4,6,6a-hexahydropyrrolo[3,4-c]pyrrol-2-yl]pyridine-2-carboxylate] was tested, and the DSF was “* (0-0.5° C.=*)”.
`Cc1cc(N2CC[C@](C)(c3ccccc3)C2)cc2oc(C(=O)N3CC4CN(c5cccc(C(=O)O)n5)CC4C3)nc12` (stereo partly drawn) [Compound 40, 6-(5-(4-methyl-6-((R)-3-methyl-3-phenylpyrrolidin-1-yl)benzo[d]oxazole-2-carbonyl)hexahydropyrrolo[3,4-c]pyrrol-2(1H)-yl)picolinic acid] was tested, and the DSF was “***** (>2.5° C.=*****)”.
With `CNC(=O)C12COC(c3nc4c(C)cc(N5CC[C@](C)(c6ccccc6)C5)cn4n3)(C1)C2c1n[nH]c(C)n1` (stereo partly shown) [Compound 41] the DSF was “***** (>2.5° C.=*****)”.
For `Cc1cc(N2CC[C@](C)(c3ccccc3)C2)cn2nc(C34CC(CO)(CO3)C4C(N)=O)nc12` (stereo partly shown) [Compound 42], the DSF was “***** (>2.5° C.=*****)”.
With `Cc1nc(C2C3(CO)COC2(c2nc4c(C)cc(N5CC[C@](C)(c6ccccc6)C5)cn4n2)C3)n[nH]1` (stereo partly shown) [Compound 43] the DSF was “***** (>2.5° C.=*****)”.
For `Cc1cc(N2CC[C@](C)(c3ccccc3)C2)cn2nc(C34CC(CN)(CO3)C4C(N)=O)nc12` (stereo partly shown) [Compound 44], the DSF was “***** (>2.5° C.=*****)”.
With `Cc1cc(N2CC[C@](C)(c3ccccc3)C2)cn2nc(C34CC(C(N)=O)(CO3)C4C(N)=O)nc12` (stereo partly shown) [Compound 45] the DSF was “***** (>2.5° C.=*****)”.
With `Cc1nc(C2C3(CN)COC2(c2nc4c(C)cc(N5CC[C@](C)(c6ccccc6)C5)cn4n2)C3)n[nH]1` (stereo partly shown) [Compound 46] the DSF was “***** (>2.5° C.=*****)”.
With `Cc1cc(N2CC[C@](C)(c3ccccc3)C2)cn2nc(C34CC(=O)NC(N)(CO3)C4)nc12` (stereo partly shown) [Compound 47] the DSF was “***** (>2.5° C.=*****)”.
With `Cc1nc(C2C3(N)COC2(c2nc4c(C)cc(N5CC[C@](C)(c6ccccc6)C5)cn4n2)C3)n[nH]1` (stereo partly shown) [Compound 48] the DSF was “***** (>2.5° C.=*****)”.
`Cc1cc(N2CC[C@](C)(c3ccccc3)C2)cn2nc(C34CC(CO)(CO3)C4C#N)nc12` (stereo partly shown) [Compound 49] was tested, and the DSF was “***** (>2.5° C.=*****)”.
For `Cc1cc(N2CC[C@](C)(c3ccccc3)C2)cn2nc(C34CC(N(C)C)(CO3)C4CO)nc12` (stereo partly shown) [Compound 50], the DSF was “***** (>2.5° C.=*****)”.
With `CC[C@]1(c2ccccc2)CCN(c2cc(C)c3nc(C45CC(N)(CO4)C5)nn3c2)C1` [Compound 51] the DSF was “** (>0.5-1 °C =**)”.
With `CC(=O)NC12COC(c3nc4c(C)cc(N5CC[C@](C)(c6ccccc6)C5)cn4n3)(C1)C2` [Compound 52] the DSF was “***** (>2.5° C.=*****)”.
`Cc1cc(N2CC[C@](C)(c3ccccc3)C2)cn2nc(C34CCC(NC(=O)CC(C)(C)O)(C3)O4)nc12` (stereo partly shown) [Compound 53] was tested, and the DSF was “***** (>2.5° C.=*****)”.
`CCNC(=O)C12COC(c3nc4c(C)cc(N5CC[C@](C)(c6ccccc6)C5)cn4n3)(C1)C2` [Compound 54] was tested, and the DSF was “***** (>2.5° C.=*****)”.
`Cc1cc(N2CC[C@](C)(c3ccccc3)C2)cn2nc(C34CC(C(N)=O)(CO3)C4)nc12` [Compound 55] was tested, and the DSF was “***** (>2.5° C.=*****)”.
With `Cc1nnc(CNC23COC(c4nc5c(C)cc(N6CC[C@](C)(c7ccccc7)C6)cn5n4)(C2)C3)[nH]1` [Compound 56] the DSF was “***** (>2.5° C.=*****)”.
`Cc1cc(OCC2(c3ccccc3)CC2)cn2nc(C34CC(N)(CO3)C4)nc12` [Compound 57] was tested, and the DSF was “***** (>2.5° C.=*****)”.
`Cc1cc(N2CC[C@](C)(c3ccccc3)C2)cn2nc(C34CC(CN)(CO3)C4)nc12` [Compound 58] was tested, and the DSF was “***** (>2.5° C.=*****)”.
With `C[C@]1(c2ccccc2)CCN(c2cc(CO)c3nc(C45CC(N)(CO4)C5)nn3c2)C1` [Compound 59] the DSF was “***** (>2.5° C.=*****)”.
With `Cc1cc(N2CC[C@](C)(c3ccccc3)C2)cn2nc(C34CC(CO)(CO3)C4)nc12` [Compound 60] the DSF was “***** (>2.5° C.=*****)”.
For `Cc1cc(OC[C@H](C)c2ccccc2)cn2nc(C34CC(N)(CO3)C4)nc12` [Compound 61], the DSF was “**** (>1.5-2.5° C.=****)”.
With `Cc1cc(N2CC[C@](C)(c3ccccc3)C2)cn2nc(C34CC(NC(=O)Cn5ncnc5C)(CO3)C4)nc12` [Compound 62] the DSF was “***** (>2.5° C.=*****)”.
For `Cc1cc(N2CC[C@](C)(c3ccccc3)C2)cn2nc(C34CC(N5CC6C(C5)C6C(=O)O)(CO3)C4)nc12` (stereo partly shown) [Compound 63], the DSF was “***** (>2.5° C.=*****)”.
`Cc1cc(N2CC[C@](C)(c3ccccc3)C2)cn2nc(C34CCC(N)(CC3)CO4)nc12` [Compound 64] was tested, and the DSF was “***** (>2.5° C.=*****)”.
With `Cc1cc(N2CC[C@](C)(c3ccccc3)C2)cn2nc(C34CC(CN)(C3)OC4(C)C)nc12` [Compound 65] the DSF was “**** (>1.5-2.5° C.=****)”.
For `Cc1cc(N2CC[C@](C)(c3ccccc3)C2)cn2nc(C34CCC(N)(CO3)C4)nc12` (stereo partly shown) [Compound 66], the DSF was “***** (>2.5° C.=*****)”.
With `Cc1cc(N2CC[C@](C)(c3ccccc3)C2)cn2nc([C@@]34CO[C@@H](C3)C(N)C4)nc12` (stereo partly shown) [Compound 67] the DSF was “**** (>1.5-2.5° C.=****)”.
With `Cc1cc(N2CC[C@](C)(c3ccccc3)C2)cn2nc([C@]34CO[C@H](C3)C(N)C4)nc12` (stereo partly shown) [Compound 68] the DSF was “**** (>1.5-2.5° C.=****)”.
For `Cc1cc(N2CC[C@](C)(c3ccccc3)C2)cn2nc(C34COC(C3)C4C(N)=O)nc12` (stereo partly shown) [Compound 69], the DSF was “**** (>1.5-2.5° C.=****)”.
In the case of `Cc1cnc(C2C3COC2(c2nc4c(C)cc(N5CC[C@](C)(c6ccccc6)C5)cn4n2)C3)[nH]1` (stereo partly shown) [Compound 70], the DSF is reported as “***** (>2.5° C.=*****)”.
With `Cc1cc(N2CC[C@](C)(c3ccccc3)C2)cn2nc(C34CC(CO3)C4C(=O)NCC(C)(C)O)nc12` (stereo partly shown) [Compound 71] the DSF was “***** (>2.5° C.=*****)”.
For `Cc1cc(N2CC[C@](C)(c3ccccc3)C2)cn2nc(C34CC(CO3)C4C(C)(C)O)nc12` (stereo partly shown) [Compound 73], the DSF was “***** (>2.5° C.=*****)”.
For `Cc1n[nH]c(C2C3COC2(c2nc4c(C)cc(N5CC[C@](C)(c6ccccc6)C5)cn4n2)C3)n1` (stereo partly shown) [Compound 74], the DSF was “***** (>2.5° C.=*****)”.
`Cc1nnc(C2C3COC2(c2nc4c(C)cc(N5CC[C@](C)(c6ccccc6)C5)cn4n2)C3)o1` (stereo partly shown) [Compound 75] was tested, and the DSF was “***** (>2.5° C.=*****)”.

Reference: patent US20260285857A1, “BICYCLIC AND HETEROCYCLIC AMIDE COMPOUNDS” (priority 2024, published 2026)
